Data reported in patent US5061794A, “Cephalosporin derivatives, and antibacterial agents” (priority 1986, dated 1991).
Values after ≈ are worked out from the molar mass of the structure shown. Where two headings read alike, the source gives them in different places.

How the values were obtained:
[1] = system: E. coli CSH(RE45); assay: microbe, parasite or virus in culture; assay type: cell-based; conditions: 10^6 CFU/ml; for Minimum Inhibitory Concentration (MIC): *E. coli CSH(RE45), lactamase-producing strain
Method in brief: (§1)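 Agar plate dilution on Mueller Hinton agar containing graded compound levels, inoculated at 10^6 CFU/ml from overnight Mueller Hinton broth cultures. MIC (μg/ml) read after 16 h at 37°C.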

[2] = system: E. coli CSH2 (RK1); assay: microbe, parasite or virus in culture; assay type: cell-based; conditions: 10^6 CFU/ml; for Minimum Inhibitory Concentration (MIC): *E. coli CSH2 (RK1), lactamase-producing strain
Method in brief: as §1

[3] = system: E. cloacae 963; assay: in vitro antibacterial activity, agar plate dilution method (MIC); assay type: cell-based; conditions: 10^6 CFU/ml
Method in brief: as §1

[4] = system: E. cloacae Nek 39; assay: as above; assay type: cell-based; conditions: Enterobacter cloacae, NEK39, 16 h, read-out: Minimum Inhibitory Concentration (MIC), *E. cloacae Nek 39, lactamase-producing strain; 10^6 CFU/ml
Method in brief: as §1

[5] = system: E. coli GN5482; assay: as above; assay type: cell-based; conditions: Escherichia coli, GN5482, 16 h
Method in brief: as §1

[6] = system: E. coli NIHJ JC2; assay: as above; assay type: cell-based; conditions: for MIC: Escherichia coli, NIHJJC2, 16 h, read-out: Minimum Inhibitory Concentration (MIC), E. coli NIHJ JC2, 10^6 CFU/ml, 37° C.
Method in brief: as §1

[7] = system: K. oxytoca GN10650; assay: as above; assay type: cell-based; conditions: 10^6 CFU/ml; for MIC: Klebsiella oxytoca, GN10650, 16 h, read-out: Minimum Inhibitory Concentration (MIC), *K. oxytoca GN10650, lactamase-producing strain
Method in brief: as §1

[8] = system: K. pneumoniae No. 42; assay: as above; assay type: cell-based; conditions: 10^6 CFU/ml; for MIC: Klebsiella pneumoniae, NO.42, 16 h, read-out: Minimum Inhibitory Concentration (MIC), *K. pneumoniae No. 42, lactamase-producing strain
Method in brief: as §1

[9] = system: K. pneumoniae PCI-602; assay: as above; assay type: cell-based; conditions: 10^6 CFU/ml; for MIC: Klebsiella pneumoniae, PCI602, 16 h, read-out: Minimum Inhibitory Concentration (MIC), K. pneumoniae PCI-602
Method in brief: as §1

[10] = system: M. morganii GN5407; assay: as above; assay type: cell-based; conditions: 10^6 CFU/ml; for Minimum Inhibitory Concentration (MIC): *M. morganii GN5407, lactamase-producing strain
Method in brief: as §1

[11] = system: P. vulgaris HX-19; assay: as above; assay type: cell-based; conditions: for Minimum Inhibitory Concentration (MIC): P. vulgaris HX-19, 10^6 CFU/ml
Method in brief: as §1

[12] = system: P. vulgaris No. 33; assay: as above; assay type: cell-based; conditions: 10^6 CFU/ml; for Minimum Inhibitory Concentration (MIC): *P. vulgaris No. 33, lactamase-producing strain
Method in brief: as §1

[13] = system: S. aureus 209P NIHJ-JC1; assay: as above; assay type: cell-based; conditions: for MIC: Staphylococcus aureus, 16 h, read-out: Minimum Inhibitory Concentration (MIC)
Method in brief: as §1

[14] = system: S. marcescens IAM 1184; assay: as above; assay type: cell-based; conditions: Serratia marcescens, IAM1184, 16 h, S. marcescens IAM 1184; 10^6 CFU/ml; read-out: Minimum Inhibitory Concentration (MIC)
Method in brief: as §1

[15] = system: S. marcescens No. 16-2; assay: as above; assay type: cell-based; conditions: Serratia marcescens, NO.162, 16 h, read-out: Minimum Inhibitory Concentration (MIC), *S. marcescens No. 16-2, lactamase-producing strain; 10^6 CFU/ml
Method in brief: as §1

[16] = system: Ps. aeruginosa AK 109; assay: as above; assay type: cell-based, Pseudomonas aeruginosa; conditions: for MIC: Pseudomonas aeruginosa, AK109, 16 h, read-out: Minimum Inhibitory Concentration (MIC)
Method in brief: as §1

[17] = system: Ps. aeruginosa AKR17; assay: as above; assay type: cell-based, Pseudomonas aeruginosa; conditions: 10^6 CFU/ml; for MIC: Pseudomonas aeruginosa
Method in brief: as §1

[18] = system: Ps. aeruginosa IF03445; assay: as above; assay type: cell-based, Pseudomonas aeruginosa; conditions: 10^6 CFU/ml; for MIC: Pseudomonas aeruginosa, IF03445, 16 h, read-out: Minimum Inhibitory Concentration (MIC), Ps. aeruginosa IF03445
Method in brief: as §1

[19] = system: Ps. cepacia 23; assay: as above; assay type: cell-based, Pseudomonas cepacia; conditions: Burkholderia cepacia, 16 h; Ps. cepacia 23; 10^6 CFU/ml; read-out: Minimum Inhibitory Concentration (MIC)
Method in brief: as §1

[20] = system: A. calcoaceticus No. 4; assay: as above; assay type: cell-based, Acinetobacter calcoaceticus; conditions: Acinetobacter calcoaceticus, NO.4, 16 h, 10^6 CFU/ml
Method in brief: as §1

[21] = Enterobacter cloacae, 16 h, E. cloacae 963, read-out: Minimum Inhibitory Concentration (MIC)
[22] = Ps. aeruginosa AK 109, 10^6 CFU/ml
[23] = read-out: Minimum Inhibitory Concentration (MIC), A. calcoaceticus No. 4
[24] = read-out: Minimum Inhibitory Concentration (MIC)

Question: Which “Minimum Inhibitory Concentration (MIC)” value [1] does the source give for `Nc1nc(C(=NOC(C(=O)O)c2ccccc2)C(=O)NC2C(=O)N3C(C(=O)O)=C(CSc4nc(C(=O)O)c(-c5ccc(O)c(O)c5)s4)CSC23)cs1` (single isomer, unassigned) [Example 51 DA] here?
Answer: Its value is 0.1 µg/mL.

Question: And the “Minimum Inhibitory Concentration (MIC)” value [2]?
Answer: Its value is 0.05 µg/mL.

Question: And the MIC [3, 21]?
Answer: Its MIC is 0.2 µg/mL (≈ 0.255 µM).

Question: What about the MIC [4] of the same compound?
Answer: Its MIC is 0.1 µg/mL (≈ 0.127 µM).

Question: And the MIC ([5]; read-out: Minimum Inhibitory Concentration (MIC), *E. coli GN5482, lactamase-producing strain, 10^6 CFU/ml)?
Answer: Its MIC is 1.56 µg/mL (≈ 1.99 µM).

Question: And the “Minimum Inhibitory Concentration (MIC)” value ([6]; E. coli NIHJ JC2, 10^6 CFU/ml, 37° C., 16 hours)?
Answer: The value was 3.12 µg/mL.

Question: What about the “Minimum Inhibitory Concentration (MIC)” value ([7]; *K. oxytoca GN10650, lactamase-producing strain) of the same compound?
Answer: The value was 0.1 µg/mL.

Question: What about the “Minimum Inhibitory Concentration (MIC)” value ([8]; *K. pneumoniae No. 42, lactamase-producing strain) of the same compound?
Answer: Its value is 0.2 µg/mL.

Question: And the “Minimum Inhibitory Concentration (MIC)” value ([9]; K. pneumoniae PCI-602)?
Answer: The value was 0.0125 µg/mL.

Question: What about the “Minimum Inhibitory Concentration (MIC)” value [10] of the same compound?
Answer: The value was 0.2 µg/mL.

Question: And the “Minimum Inhibitory Concentration (MIC)” value [11]?
Answer: The value was 0.2 µg/mL.

Question: What about the “Minimum Inhibitory Concentration (MIC)” value [12] of the same compound?
Answer: The value was 0.39 µg/mL.

Question: What about the “Minimum Inhibitory Concentration (MIC)” value ([13]; S. aureus 209P NIHJ-JC1, 10^6 CFU/ml, 37° C., 16 hours) of the same compound?
Answer: Its value is 100 µg/mL.

Question: What about the MIC [14] of the same compound?
Answer: Its MIC is 0.1 µg/mL (≈ 0.127 µM).

Question: What about the MIC [15] of the same compound?
Answer: Its MIC is 1.56 µg/mL (≈ 1.99 µM).

Question: And the “Minimum Inhibitory Concentration (MIC)” value [16, 22]?
Answer: Its value is 1.56 µg/mL.

Question: And the “Minimum Inhibitory Concentration (MIC)” value ([17]; Ps. aeruginosa AKR17)?
Answer: The value was 1.56 µg/mL.

Question: What about the “Minimum Inhibitory Concentration (MIC)” value ([18]; Ps. aeruginosa IF03445) of the same compound?
Answer: Its value is 1.56 µg/mL.

Question: What about the MIC [19] of the same compound?
Answer: The MIC was < 0.006 µg/mL.

Question: What about the MIC [20, 23] of the same compound?
Answer: The MIC was 0.1 µg/mL (≈ 0.127 µM).

Question: Which results are given for `CCON=C(C(=O)NC1C(=O)N2C(C(=O)O)=C(CSc3nc(C(=O)O)c(-c4ccc(O)c(O)c4)s3)CSC12)c1csc(N)n1` (stereo not drawn) [compound 53, disodium 7β-[2-(2-aminothiazol-4-yl)-2-ethoxyiminoacetamido]-3-[4-carboxylate-5-(3,4-dihydroxyphenyl)thiazol-2-yl]thiomethyl-3-cephem-4-carboxylate]?
Answer: MIC ([1]; Escherichia coli, 16 h, read-out: Minimum Inhibitory Concentration (MIC), *E. coli CSH(RE45), lactamase-producing strain): 0.025 µg/mL; MIC ([2]; Escherichia coli, 16 h, read-out: Minimum Inhibitory Concentration (MIC), *E. coli CSH2 (RK1), lactamase-producing strain): 0.0125 µg/mL; MIC [3, 21]: 0.1 µg/mL; MIC [4]: 0.39 µg/mL; MIC [5, 24]: 3.12 µg/mL; MIC [6]: 0.78 µg/mL; MIC [7]: 3.12 µg/mL; MIC [8]: 0.1 µg/mL; MIC [9]: < 0.006 µg/mL; MIC ([10]; Morganella morganii, GN5407, 16 h, read-out: Minimum Inhibitory Concentration (MIC), *M. morganii GN5407, lactamase-producing strain): 0.05 µg/mL; MIC ([11]; Proteus vulgaris, HX19, 16 h, read-out: Minimum Inhibitory Concentration (MIC)): 0.0125 µg/mL; MIC ([12]; Proteus vulgaris, NO.33, 16 h, read-out: Minimum Inhibitory Concentration (MIC), *P. vulgaris No. 33, lactamase-producing strain): 0.025 µg/mL; MIC [13]: 12.5 µg/mL; MIC [14]: 0.05 µg/mL; MIC [15]: 6.25 µg/mL; MIC [16]: 3.12 µg/mL; MIC ([17]; 16 h, Ps. aeruginosa AKR17, read-out: Minimum Inhibitory Concentration (MIC)): 50 µg/mL; MIC [18]: 3.12 µg/mL; MIC [19]: 0.025 µg/mL; MIC [20, 23]: 0.39 µg/mL

Question: With `Nc1nc(/C(=N/OC(C(=O)O)c2ccccc2)C(=O)N[C@@H]2C(=O)N3C(C(=O)O)=C(CSc4nnc(-c5ccc(O)c(O)c5)o4)CS[C@H]23)cs1` (single isomer, unassigned) [Example 24 DA, disodium 78-[2-(2-aminothiazol-4-yl)-2-(α-carboxylatebenzyloxyimino)acetamido]-3-[5-(3,4-dihydroxyphenyl)-1,3,4-oxadiazol-2-yl]-thiomethyl-3-cephem-4-carboxylate] as the compound, how does the “Minimum Inhibitory Concentration (MIC)” value [1] read?
Answer: Its value is < 0.006 µg/mL.

Question: What about the “Minimum Inhibitory Concentration (MIC)” value [2] of the same compound?
Answer: The value was < 0.006 µg/mL.

Question: What about the MIC ([3]; Enterobacter cloacae, 963, 16 h, read-out: Minimum Inhibitory Concentration (MIC), E. cloacae 963) of the same compound?
Answer: The MIC was 0.05 µg/mL.

Question: What about the MIC [4] of the same compound?
Answer: The MIC was 0.025 µg/mL.

Question: And the MIC [5, 24]?
Answer: Its MIC is 0.39 µg/mL.

Question: What about the MIC [6] of the same compound?
Answer: The MIC was 0.2 µg/mL.

Question: And the MIC [7]?
Answer: The MIC was 0.0125 µg/mL.

Question: And the MIC [8]?
Answer: Its MIC is 0.0125 µg/mL.

Question: What about the MIC [9] of the same compound?
Answer: Its MIC is < 0.006 µg/mL.

Question: And the “Minimum Inhibitory Concentration (MIC)” value [10]?
Answer: Its value is 0.025 µg/mL.

Question: And the “Minimum Inhibitory Concentration (MIC)” value [11]?
Answer: The value was < 0.006 µg/mL.

Question: What about the “Minimum Inhibitory Concentration (MIC)” value [12] of the same compound?
Answer: Its value is 0.0125 µg/mL.

Question: And the MIC [13]?
Answer: Its MIC is 12.5 µg/mL.

Question: And the MIC [14]?
Answer: Its MIC is 0.025 µg/mL.

Question: And the MIC [15]?
Answer: The MIC was 0.78 µg/mL.

Question: And the MIC [16, 22]?
Answer: Its MIC is 0.1 µg/mL.

Question: What about the MIC ([17]; AKR17, 16 h, read-out: Minimum Inhibitory Concentration (MIC), Ps. aeruginosa AKR17) of the same compound?
Answer: The MIC was 0.78 µg/mL.

Question: What about the MIC [18] of the same compound?
Answer: Its MIC is 0.78 µg/mL.

Question: What about the MIC [19] of the same compound?
Answer: Its MIC is < 0.006 µg/mL.

Question: What about the MIC ([20]; A. calcoaceticus No. 4, read-out: Minimum Inhibitory Concentration (MIC)) of the same compound?
Answer: The MIC was 0.05 µg/mL.
